Data taken from ChEMBL document CHEMBL1201862, “PubChem BioAssay data set” (2004).
Several values for one entry are separate records, joined by “and”; a condition that tells them apart may be missing. Equal values may be shown once. Activity calls are given as the source filed them.

Experiments:
Cytochrome P450 2D6 = Cytochrome P450 2D6 (Homo sapiens, UniProt P10635);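 also: CYP2D6 member of a cytochrome P450 panel assay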
Cytochrome P450 2C19 = Cytochrome P450 2C19 (Homo sapiens, UniProt P33261); assay: Cytochrome panel assay with activity outcomes. Panel member name: p450-cyp2c19 Compounds with AC50 equal or less than 10 uM are considered active; assay type: functional
Chain of Cytochrome P450 2C19 (P33261 whole entry): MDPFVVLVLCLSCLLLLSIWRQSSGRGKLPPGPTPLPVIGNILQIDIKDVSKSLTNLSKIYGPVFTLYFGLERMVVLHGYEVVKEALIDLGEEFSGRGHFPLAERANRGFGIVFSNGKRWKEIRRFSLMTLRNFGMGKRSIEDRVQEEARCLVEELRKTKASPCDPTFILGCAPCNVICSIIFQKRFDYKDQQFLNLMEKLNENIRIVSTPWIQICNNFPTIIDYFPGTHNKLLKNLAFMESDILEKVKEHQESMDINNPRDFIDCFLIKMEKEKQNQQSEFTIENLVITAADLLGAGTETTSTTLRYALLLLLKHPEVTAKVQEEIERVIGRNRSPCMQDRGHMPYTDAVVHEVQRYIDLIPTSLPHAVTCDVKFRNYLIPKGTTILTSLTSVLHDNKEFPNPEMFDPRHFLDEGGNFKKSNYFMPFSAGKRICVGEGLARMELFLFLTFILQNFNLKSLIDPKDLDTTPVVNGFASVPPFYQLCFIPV

Cytochrome P450 1A2 = molecular target: T1, Cytochrome P450 1A2 (Homo sapiens, UniProt P05177);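 also: PubChem cytochrome P450 panel assay, CYP1A2 panel member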
T1 sequence (P05177 whole entry): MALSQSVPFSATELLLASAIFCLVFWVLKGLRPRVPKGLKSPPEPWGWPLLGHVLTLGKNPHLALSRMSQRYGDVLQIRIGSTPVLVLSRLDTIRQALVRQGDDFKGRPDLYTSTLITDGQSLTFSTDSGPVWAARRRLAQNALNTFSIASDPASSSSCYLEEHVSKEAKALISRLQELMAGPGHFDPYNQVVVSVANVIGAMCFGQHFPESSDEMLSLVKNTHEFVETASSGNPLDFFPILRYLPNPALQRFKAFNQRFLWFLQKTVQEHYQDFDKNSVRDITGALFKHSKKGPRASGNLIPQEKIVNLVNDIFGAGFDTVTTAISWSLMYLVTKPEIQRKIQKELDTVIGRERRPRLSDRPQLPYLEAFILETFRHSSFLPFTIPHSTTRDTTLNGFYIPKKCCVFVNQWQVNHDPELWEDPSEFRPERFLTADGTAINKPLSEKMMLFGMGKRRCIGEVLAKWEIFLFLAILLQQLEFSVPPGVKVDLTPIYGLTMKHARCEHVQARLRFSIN

Cytochrome P450 2C9 = Cytochrome P450 2C9 (Homo sapiens, UniProt P11712)
Chain of Cytochrome P450 2C9 (P11712 whole entry): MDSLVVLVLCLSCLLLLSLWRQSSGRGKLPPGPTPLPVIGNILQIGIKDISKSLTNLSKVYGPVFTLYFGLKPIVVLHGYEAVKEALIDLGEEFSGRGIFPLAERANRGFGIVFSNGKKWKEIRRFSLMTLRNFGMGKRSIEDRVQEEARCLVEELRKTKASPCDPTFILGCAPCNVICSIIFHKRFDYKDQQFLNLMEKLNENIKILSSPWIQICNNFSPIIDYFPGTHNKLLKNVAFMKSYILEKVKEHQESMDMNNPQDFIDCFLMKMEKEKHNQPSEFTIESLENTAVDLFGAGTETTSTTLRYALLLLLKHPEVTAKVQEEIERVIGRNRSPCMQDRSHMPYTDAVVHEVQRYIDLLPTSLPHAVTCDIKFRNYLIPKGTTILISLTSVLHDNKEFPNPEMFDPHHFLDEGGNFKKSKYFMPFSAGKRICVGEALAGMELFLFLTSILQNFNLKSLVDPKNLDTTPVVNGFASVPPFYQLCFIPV

[1] = inhibitors of intracellular T. cruzi replication, confirmation, NIH3T3 host cells, beta-gal luminescence (AID 2044); assay type: functional, cell-based;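 also: intracellular parasites grown in NIH/3T3 mouse fibroblasts as host cells; luminescent beta-galactosidase reporter signal from transgenic T. cruzi replicating inside host cells; inhibitors lower the luminescence signal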
[2] = cytotoxicity toward NIH3T3 fibroblasts, dose response, counter-screen, cell-based, ATP luminescence, mouse fibroblasts (AID 2010); assay type: functional;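 also: cells exposed to compound for about 90 hours before reading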
[3] = molecular target: T2, Replicative DNA helicase DnaB (Mycobacterium tuberculosis, UniProt P9WMR3); assay: DnaB intein splicing inhibitors, dose response, biochemical, cell-free fluorescence (AID 449749); assay type: functional
T2 sequence (P9WMR3 whole entry): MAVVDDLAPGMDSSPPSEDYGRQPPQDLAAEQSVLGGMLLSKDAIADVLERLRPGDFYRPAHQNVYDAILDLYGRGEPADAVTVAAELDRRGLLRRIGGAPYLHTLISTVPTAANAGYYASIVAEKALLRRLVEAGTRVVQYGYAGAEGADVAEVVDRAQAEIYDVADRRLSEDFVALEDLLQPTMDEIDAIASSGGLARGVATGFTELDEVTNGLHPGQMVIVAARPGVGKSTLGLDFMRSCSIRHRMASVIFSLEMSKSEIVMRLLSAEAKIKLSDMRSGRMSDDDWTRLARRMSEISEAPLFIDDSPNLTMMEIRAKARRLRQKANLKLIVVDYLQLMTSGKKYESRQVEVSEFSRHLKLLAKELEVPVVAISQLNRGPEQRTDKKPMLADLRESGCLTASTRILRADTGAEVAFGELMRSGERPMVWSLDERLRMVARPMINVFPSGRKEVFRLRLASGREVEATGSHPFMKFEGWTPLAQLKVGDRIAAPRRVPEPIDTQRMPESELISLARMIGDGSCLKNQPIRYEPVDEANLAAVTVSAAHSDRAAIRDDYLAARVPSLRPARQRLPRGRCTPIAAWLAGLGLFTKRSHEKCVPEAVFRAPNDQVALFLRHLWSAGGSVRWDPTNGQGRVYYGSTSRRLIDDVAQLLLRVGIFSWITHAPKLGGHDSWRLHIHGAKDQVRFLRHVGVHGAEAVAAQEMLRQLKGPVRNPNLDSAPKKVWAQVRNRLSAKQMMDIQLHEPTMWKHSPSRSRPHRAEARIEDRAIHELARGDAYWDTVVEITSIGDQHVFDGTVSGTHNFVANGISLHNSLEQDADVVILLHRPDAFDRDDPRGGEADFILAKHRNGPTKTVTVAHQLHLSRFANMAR

Protein RecA = molecular target: T3, Protein RecA (Mycobacterium tuberculosis, UniProt P9WHJ3); assay: Fluorescence Cell-Free Homogeneous Dose Retest to Identify Inhibitors of RecA-Intein Splicing Activity. [Related pubchem assays (depositor defined):AID2097, AID2223, AID489010, AID492950]; assay type: functional
T3 sequence (P9WHJ3 whole entry): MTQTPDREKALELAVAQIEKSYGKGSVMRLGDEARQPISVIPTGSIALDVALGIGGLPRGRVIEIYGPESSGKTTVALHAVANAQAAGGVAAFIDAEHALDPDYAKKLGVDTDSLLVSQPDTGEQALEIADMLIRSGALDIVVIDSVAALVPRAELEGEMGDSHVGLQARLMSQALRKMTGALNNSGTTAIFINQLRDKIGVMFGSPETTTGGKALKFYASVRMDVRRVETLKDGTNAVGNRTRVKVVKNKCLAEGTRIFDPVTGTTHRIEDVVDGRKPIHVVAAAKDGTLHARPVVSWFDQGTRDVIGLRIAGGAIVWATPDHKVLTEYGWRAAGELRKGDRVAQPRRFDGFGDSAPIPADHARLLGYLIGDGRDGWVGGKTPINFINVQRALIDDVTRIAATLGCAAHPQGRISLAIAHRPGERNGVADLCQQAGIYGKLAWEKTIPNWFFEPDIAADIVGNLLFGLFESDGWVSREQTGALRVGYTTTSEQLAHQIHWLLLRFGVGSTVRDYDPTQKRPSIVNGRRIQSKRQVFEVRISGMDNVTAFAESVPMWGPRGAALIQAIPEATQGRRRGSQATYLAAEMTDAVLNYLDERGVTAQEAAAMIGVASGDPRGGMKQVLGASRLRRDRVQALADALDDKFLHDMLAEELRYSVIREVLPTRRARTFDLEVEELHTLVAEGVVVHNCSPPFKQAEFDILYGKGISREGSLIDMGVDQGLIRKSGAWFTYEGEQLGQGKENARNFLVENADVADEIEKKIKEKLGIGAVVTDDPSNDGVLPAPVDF

Chain of Cytochrome P450 2D6 (P10635 whole entry): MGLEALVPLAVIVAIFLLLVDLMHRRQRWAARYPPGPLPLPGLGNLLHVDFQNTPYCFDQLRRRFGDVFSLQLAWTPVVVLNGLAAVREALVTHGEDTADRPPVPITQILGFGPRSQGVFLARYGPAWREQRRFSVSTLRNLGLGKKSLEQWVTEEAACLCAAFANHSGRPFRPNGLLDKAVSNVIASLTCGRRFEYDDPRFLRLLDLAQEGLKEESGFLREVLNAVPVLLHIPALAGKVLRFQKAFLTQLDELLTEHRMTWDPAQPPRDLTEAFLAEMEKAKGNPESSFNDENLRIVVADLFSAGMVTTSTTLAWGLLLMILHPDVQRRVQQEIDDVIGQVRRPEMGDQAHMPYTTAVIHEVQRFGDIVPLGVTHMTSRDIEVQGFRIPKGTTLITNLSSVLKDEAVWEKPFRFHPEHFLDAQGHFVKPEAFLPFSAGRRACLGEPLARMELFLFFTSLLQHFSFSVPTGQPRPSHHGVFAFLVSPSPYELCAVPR

Row | Structure (SMILES) | AC50 (Cytochrome P450 2D6) | AC50 (Cytochrome P450 2C19; read-out: AC50) | AC50 (Cytochrome P450 1A2) | also measured
1 | CCNc1ncc2nc(C)c(=O)n(Cc3cccc(OC)c3)c2n1 | 25.1 µM (inconclusive) |  |  | 
2 | Cc1ccc(-c2cc(-c3nnc(SCC(=O)NC(C)C(C)C)n3N)c3ccccc3n2)cc1 (configuration not stated) |  | 15.8 µM (inconclusive) | 31.6 µM (inconclusive) | 
3 | O=C(NNC(=O)c1cccnc1)Nc1cccc2ccccc12 |  | 28.2 µM (inconclusive) | 14.1 µM (inconclusive) | 
4 | O=C(NCCc1c[nH]c2ccccc12)[C@H]1C[C@@H]1[C@H](NP(=O)(c1ccccc1)c1ccccc1)c1ccccc1 |  |  | 12.6 µM (inconclusive) | 
5 | NCCC(=O)NCCc1c[nH]cn1 [CARCININE] | 31.6 µM (inconclusive) and 10 µM (inconclusive) |  |  | AC50 (Cytochrome P450 2C19): inconclusive
6 | COC(=O)[C@@]1(Cc2ccccc2)[C@H]2c3cc(C(=O)N(C)C)n(CCN4CNCC4=O)c3C[C@H]2CN1C(=O)c1ccccc1 |  | 31.6 µM (inconclusive) | 5.01 µM (inconclusive) | AC50 (Cytochrome P450 2C9): 25.1 µM (inconclusive)
7 | NC(=O)COc1c(F)cc(SCCNS(=O)(=O)c2ccccc2)cc1F |  |  | 31.6 µM (inconclusive) | AC50 (Cytochrome P450 2C9): 31.6 µM (inconclusive)
8 | COc1ccc(-n2nnnc2-c2cn(C)nc2C(F)(F)F)cc1 |  |  | 25.1 µM (inconclusive) | AC50 (Cytochrome P450 2C9): 28.2 µM (inconclusive)
9 | CS(=O)(=O)Nc1cccc(-c2cncnc2Nc2ccc(F)cc2)c1 | 20 µM (inconclusive) |  |  | 
10 | Cc1ccc(NC(=S)N2CCN(CCN3C(=O)c4cccc5cccc(c45)C3=O)CC2)cc1 |  | 15.8 µM (inconclusive) | 20 µM (inconclusive) | EC50 [1]: 0.855 µM (active); EC50 [2]: > 60 µM (not active)
11 | COc1cc([N+](=O)[O-])ccc1NC(=O)CCCOc1cccc(C)c1 | 15.8 µM (inconclusive) |  |  | 
12 | COc1ccc2[nH]cc(CCNc3ncncc3-c3ccc(C(=O)N(C)C)cc3)c2c1 |  |  | 20 µM (inconclusive) | 
13 | CCCN[C@@H](C)C(=O)Nc1c(C)csc1C(=O)OC |  |  | 12.6 µM (inconclusive) | 
14 | Cc1ccccc1NS(=O)(=O)c1cc(C(=O)Nc2cccc(N(C)S(C)(=O)=O)c2)ccc1C | 17.8 µM (inconclusive) |  | 17.8 µM (inconclusive) | 
15 | COc1ccc2c(c1)CCc1c(C(=O)N3CCCCCC3)noc1-2 | 15.8 µM (inconclusive) |  |  | AC50 (Cytochrome P450 2C9): 25.1 µM (inconclusive)
16 | CC(C)n1nnnc1SCC(=O)NCCc1ccccc1 | 25.1 µM (inconclusive) |  |  | 
17 | O=C(CNS(=O)(=O)c1ccc(Br)s1)N1CCC(N2CCCCC2)CC1 |  | 20 µM (inconclusive) |  | 
18 | c1ccc(-c2ccccn2)nc1 |  |  | 25.1 µM (inconclusive) | 
19 | c1ccc(Nc2nc(-c3ccc4c(c3)OCO4)nc3ccccc23)cc1 | 39.8 µM (inconclusive) |  |  | 

Row | Structure (SMILES) | AC50 (Cytochrome P450 2D6) | AC50 (Cytochrome P450 2C19; read-out: AC50) | AC50 (Cytochrome P450 1A2) | also measured
20 | COc1ccc(C(=O)Nc2cccc(/C(C)=N/NC(=O)c3ccc([N+](=O)[O-])cc3)c2)cc1OC |  | 31.6 µM (inconclusive) |  | AC50 (Cytochrome P450 2C9): 2.51 µM (inconclusive)
21 | CNC(=O)COC(=O)c1cc2c(C)nn(-c3ccc(F)cc3)c2s1 |  | 39.8 µM (inconclusive) |  | AC50 (Cytochrome P450 2C9): 1.12 µM (inconclusive)
22 | COc1ccc(O[C@H]2C=C[C@@H](c3ccccc3)O[C@H]2COC(=O)CC/C(C)=N\O[C@@H](C)c2cn([C@H]3COC[C@H]3O)nn2)cc1 | 7.94 µM (inconclusive) |  |  | 
23 | CN(C)c1nc(NCc2ccccc2)nc(N/N=C/c2ccc(Cl)cc2Cl)n1 |  | 1 µM (inconclusive) |  | 
24 | O=[N+]([O-])c1ccc(NN=C2c3ccccc3Cc3ccccc32)c([N+](=O)[O-])c1 |  |  | 0.794 µM (inconclusive) | 
25 | CCOC(=O)c1cc(C(=O)OCC)cc(-n2cc(O)c(C(=O)OCC)n2)c1 | 3.16 µM (inconclusive) |  |  | 
26 | c1cc(CN2CC3(CCNCC3)C2)ccn1 | 39.8 µM (inconclusive) |  |  | 
27 | CCN=C(Nc1cccc(F)c1)SC1CC(=O)N(c2ccc(OC)cc2)C1=O (configuration not stated) | 14.1 µM (inconclusive) |  |  | 
28 | COC(=O)[C@H]1C(=O)[C@H](C(=O)OC)[C@@H]2CC[C@H]1N2C |  |  | 0.794 µM (inconclusive) | 
29 | CC(=O)c1c(O)cc(=O)n(-c2ccccc2)c1-c1ccc(C)cc1 | 0.00501 µM (inconclusive) |  |  | AC50 (Cytochrome P450 2C9): 15.8 µM (inconclusive)
30 | C/C(Cn1nc([N+](=O)[O-])cc1C)=N\NC(=O)c1ccc(O)cc1O |  | 7.08 µM (inconclusive) | 25.1 µM (inconclusive) | 
31 | Cc1nnc(NC(=O)CCC(=O)NCc2cccs2)s1 |  | 22.4 µM (inconclusive) |  | AC50 (Cytochrome P450 2C9): 31.6 µM (inconclusive)
32 | O=C(c1cnccn1)N1CCC2(CCCN(C(c3ccccc3)c3ccccc3)C2)CC1 |  | 25.1 µM (inconclusive) | 20 µM (inconclusive) | 
33 | Cc1ccccc1NC(=O)CSc1nc(N2CCCCC2)nc(N2CCCCC2)n1 |  |  | 3.55 µM (inconclusive) | AC50 (Cytochrome P450 2C9): 0.00891 µM (inconclusive)
34 | CN1CCc2nc(SCC(=O)Nc3ccc(OC(F)(F)F)cc3)c(C#N)c(-c3cccs3)c2C1 |  |  |  | AC50 [3]: > 380 µM (inactive); EC50 (Protein RecA): 2.33 µM (active)
35 | CC(=O)Oc1ccccc1C(=O)Oc1ccccc1C(=O)O [DIPLOSALSALATE] |  |  | 12.6 µM (inconclusive) | AC50 (Cytochrome P450 2C9): 15.8 µM (inconclusive)
36 | CCc1c(C(=O)NCc2ccc3c(c2)OCO3)[nH]c(C)c1C(C)=O | 20 µM (inconclusive) |  |  | AC50 (Cytochrome P450 2C9): 10 µM (inconclusive)
37 | CC1CN(C(=S)NC(=O)c2ccc([N+](=O)[O-])cc2)CC(C)O1 (configuration not stated) |  | 31.6 µM (inconclusive) | 12.6 µM (inconclusive) | 
38 | C#CCOC(=O)c1ccccc1C(=O)n1nnc2ccccc21 |  |  |  | AC50 [3]: 6.81 µM (active); EC50 (Protein RecA): 8.84 µM (active)
